Assay results from US20250282820A1, “PEPTIDE COMPLEX HAVING TRKB BINDING ACTIVITY” (PEPTIDREAM INC, priority 2022, published 2025).
*1 amine or outer side, *2 acyl side, *3 side chain or, on linkers, in order; H or OH if unused. Where a SMILES comes first, the peptide text is derived from it. Bridges are numbered along the chain shown (N, C = ends). Roman numbers before positions name the chains, in order. Where no end group is shown, it is not given here. [ ]: non-standard residue; d: D form. X1 = O=C(OCCOCCOCCOCCOCCOCCOCCOCCOCCOCCOCCOCCOC(=O)[*:2])[*:1]; PEG8 = NCCOCCOCCOCCOCCOCCOCCOCCOCCC(=O)O; 3Pal = N[C@@H](Cc1cccnc1)C(=O)O

B1: peptide complex, dimer structure No. 48 (peptide sequence No. 15 + linker structure No. 7) (peptide)
peptide: {CH2CO}-FSPY[3Pal]WPTYSE[3Pal]VECG
modifications: thioether N-15; also: homodimer via linker No. 7 (K-cPEG13c-K) at Gly16
B2: peptide complex, dimer structure No. 56 (peptide sequence No. 17 + linker structure No. 7) (peptide)
peptide: {CH2CO}-FEPY[3Pal]WPTYSE[3Pal]VECG
modifications: thioether N-15; also: homodimer via linker No. 7 (K-cPEG13c-K) at Gly16

Columns and labels:
[1] = target: T1, TrkB (CellSensor TrkB-NFAT-bla CHO-K1 Cell) (Homo sapiens, UniProt Q16620); assay: NFAT transcriptional reporter assay for TrkB agonist activity; type: cell-based; details: class = peptide concentration giving 50% or more activity; BDNF maximum signal = 100%, no stimulation = 0%; 5 hours culture
T1 construct: host or cells: CHO-K1 (CellSensor TrkB-NFAT-bla CHO-K1)
T1 sequence (Q16620 32-822): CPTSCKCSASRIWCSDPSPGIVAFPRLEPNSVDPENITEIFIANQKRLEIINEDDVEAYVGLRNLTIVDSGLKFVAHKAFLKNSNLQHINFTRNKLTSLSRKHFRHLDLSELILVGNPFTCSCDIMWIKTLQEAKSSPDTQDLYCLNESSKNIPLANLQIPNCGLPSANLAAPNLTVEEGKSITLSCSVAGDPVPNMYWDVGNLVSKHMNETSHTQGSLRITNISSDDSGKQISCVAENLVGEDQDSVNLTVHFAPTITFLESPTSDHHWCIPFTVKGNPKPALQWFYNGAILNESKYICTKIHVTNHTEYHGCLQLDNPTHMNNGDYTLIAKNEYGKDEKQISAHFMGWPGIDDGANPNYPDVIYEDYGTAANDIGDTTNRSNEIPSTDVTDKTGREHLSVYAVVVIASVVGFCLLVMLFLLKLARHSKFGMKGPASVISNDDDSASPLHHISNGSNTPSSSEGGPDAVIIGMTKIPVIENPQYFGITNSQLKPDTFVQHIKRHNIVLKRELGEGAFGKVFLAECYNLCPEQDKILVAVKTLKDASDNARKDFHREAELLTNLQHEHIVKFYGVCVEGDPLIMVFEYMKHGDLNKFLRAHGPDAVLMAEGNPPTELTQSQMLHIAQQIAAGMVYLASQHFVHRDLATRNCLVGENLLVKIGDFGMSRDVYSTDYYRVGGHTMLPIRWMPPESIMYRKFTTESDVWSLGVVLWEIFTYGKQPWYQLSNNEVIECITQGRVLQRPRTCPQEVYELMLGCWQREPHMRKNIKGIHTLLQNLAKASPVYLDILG
Summary of the method: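 CHO-K1 TrkB-NFAT-bla cells, 12,500 per well, treated overnight-seeded with peptide or BDNF for 5 h, then CCF4-AM substrate 2 h in the dark; 460/535 nm emission ratio. Activity scaled to maximal BDNF signal (100%) and unstimulated (0%); grades A/B/C mean ≥50% activity at 1, 10 or 100 nM.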

TrkB = TrkB (Homo sapiens, UniProt Q16620); assay: PathHunter eXpress TrkB Functional Assay (phosphorylation of TrkB); type: cell-based; details: maximum signal induced by BDNF = 100%; stimulation for 3 hours
Chain of TrkB (Q16620 32-822): as above
Summary of the method: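 PathHunter TrkB cells, cultured 48 h, were stimulated 3 h with peptide or BDNF, then detection reagent added for 60 min at room temperature; luminescence read. Activity (%) scaled from unstimulated (0%) to maximal BDNF signal (100%); peptides tested over 0.006104-100 nM, 0.032-100 nM or 0.01-10 nM ranges.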

[2] = target: T1, TrkB (CellSensor TrkB-NFAT-bla CHO-K1 Cell); assay: pERK1/2 AlphaLISA assay (phosphorylation of ERK) for TrkB agonist activity; type: cell-based; details: class = peptide concentration giving 50% or more activity; BDNF maximum signal = 100%, no stimulation = 0%; 15 minutes of stimulation
Summary of the method: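 TrkB-NFAT-bla CHO-K1 cells were starved 4 h in 0.1% BSA medium and then stimulated 15 min with peptide or BDNF; p-ERK1/2 (Thr202/Tyr204) in the lysate was read by AlphaLISA SureFire. Activity % was scaled to the BDNF maximum (100%) and no stimulation (0%); A = ≥50% at 1 nM, B = ≥50% at 10 nM; curves were 8 points, 4-fold dilutions from 100 nM.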

[3] = target: Recombinant Human TrkB Fc Chimera Protein (R&D Systems) (human) (UniProt Q16620); assay: SPR (Biacore T200), TrkB-Fc captured on anti-human IgG (Fc) antibody, peptide complex as analyte, single cycle kinetics
Chain of Recombinant Human TrkB Fc Chimera Protein (R&D Systems) (human) (Q16620 32-430, change not shown): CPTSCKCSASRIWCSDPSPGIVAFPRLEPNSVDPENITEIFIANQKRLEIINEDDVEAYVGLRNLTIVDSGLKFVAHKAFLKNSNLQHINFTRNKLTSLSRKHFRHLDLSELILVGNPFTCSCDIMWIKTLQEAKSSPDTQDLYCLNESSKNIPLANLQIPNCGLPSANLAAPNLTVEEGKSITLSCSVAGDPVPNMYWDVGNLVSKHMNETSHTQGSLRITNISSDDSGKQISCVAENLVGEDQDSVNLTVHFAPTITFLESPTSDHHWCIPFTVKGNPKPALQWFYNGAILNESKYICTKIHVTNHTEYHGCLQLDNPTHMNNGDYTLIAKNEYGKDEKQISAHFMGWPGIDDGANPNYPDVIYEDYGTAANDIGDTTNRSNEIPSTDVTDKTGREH

[4] = target: TrkB of the cells of the PathHunter eXpress TrkB Functional Assay kit (DiscoverX) (UniProt Q16620 32-822, limits assumed); assay: cell-based or functional assay
Chain of TrkB of the cells of the PathHunter eXpress TrkB Functional Assay kit (DiscoverX) (Q16620 32-822 limits assumed): as the sequence (Q16620 32-822) above

Molecule | NFAT Assay Results [1] | Emax (TrkB) | pERK (aLISA) Assay Results [2] | koff [3] | PathHunter EC50 [4] | PathHunter Emax (BDNF maximum = 100%) [4]
CC(C)[C@@H]1NC(=O)[C@H](Cc2cccnc2)NC(=O)[C@H](CCC(=O)O)NC(=O)[C@H](CO)NC(=O)[C@H](Cc2ccc(O)cc2)NC(=O)[C@H]([C@@H](C)O)NC(=O)[C@@H]2CCCN2C(=O)[C@H](Cc2c[nH]c3ccccc23)NC(=O)[C@H](Cc2cccnc2)NC(=O)[C@H](Cc2ccc(O)cc2)NC(=O)[C@@H]2CCCN2C(=O)[C@H](CCC(=O)O)NC(=O)[C@H](Cc2ccccc2)NC(=O)CSC[C@@H](C(=O)NCC(=O)N[C@@H](CCCCNC(=O)OCCOCCOCCOCCOCCOCCOCCOCCOCCOCCOCCOCCOC(=O)NCCCC[C@H](NC(=O)CNC(=O)[C@@H]2CSCC(=O)N[C@@H](Cc3ccccc3)C(=O)N[C@@H](CCC(=O)O)C(=O)N3CCC[C@H]3C(=O)N[C@@H](Cc3ccc(O)cc3)C(=O)N[C@@H](Cc3cccnc3)C(=O)N[C@@H](Cc3c[nH]c4ccccc34)C(=O)N3CCC[C@H]3C(=O)N[C@@H]([C@@H](C)O)C(=O)N[C@@H](Cc3ccc(O)cc3)C(=O)N[C@@H](CO)C(=O)N[C@@H](CCC(=O)O)C(=O)N[C@@H](Cc3cccnc3)C(=O)N[C@@H](C(C)C)C(=O)N[C@@H](CCC(=O)O)C(=O)N2)C(N)=O)C(N)=O)NC(=O)[C@H](CCC(=O)O)NC1=O [compound 57] (I: {CH2CO}-FEPY[3Pal]WPTYSE[3Pal]VECGK-NH2 / II: {CH2CO}-FEPY[3Pal]WPTYSE[3Pal]VECGK-NH2; linker I:17-II:17 via X1; thioether I:N-I:15, II:N-II:15) | A (The peptide with 50% or more activity when 1 nM of the peptide was added was evaluated as A) | 99% | A (The peptide with 50% or more activity when 1 nM of the peptide was added was evaluated as A) | – | – | –
CC(C)C[C@@H]1NC(=O)[C@H](Cc2ccccc2)NC(=O)CSC[C@@H](C(=O)NCC(=O)NCCOCCOCCOCCOCCOCCOCCOCCOCCC(=O)NCCCC[C@H](NC(=O)CCOCCOCCOCCOCCOCCOCCOCCOCCNC(=O)CNC(=O)[C@@H]2CSCC(=O)N[C@@H](Cc3ccccc3)C(=O)N[C@@H](CC(C)C)C(=O)N3CCC[C@H]3C(=O)N[C@@H](Cc3ccc(O)cc3)C(=O)N[C@@H](Cc3cccnc3)C(=O)N[C@@H](Cc3c[nH]c4ccccc34)C(=O)N3CCC[C@H]3C(=O)N[C@@H]([C@@H](C)O)C(=O)N[C@@H](Cc3ccc(O)cc3)C(=O)N[C@@H](CO)C(=O)N[C@@H](CCC(=O)O)C(=O)N[C@@H](Cc3cccnc3)C(=O)N[C@@H](C(C)C)C(=O)N[C@@H](CCC(=O)O)C(=O)N2)C(N)=O)NC(=O)[C@H](CCC(=O)O)NC(=O)[C@H](C(C)C)NC(=O)[C@H](Cc2cccnc2)NC(=O)[C@H](CCC(=O)O)NC(=O)[C@H](CO)NC(=O)[C@H](Cc2ccc(O)cc2)NC(=O)[C@H]([C@@H](C)O)NC(=O)[C@@H]2CCCN2C(=O)[C@H](Cc2c[nH]c3ccccc23)NC(=O)[C@H](Cc2cccnc2)NC(=O)[C@H](Cc2ccc(O)cc2)NC(=O)[C@@H]2CCCN2C1=O [compound 14] (I: {CH2CO}-FLPY[3Pal]WPTYSE[3Pal]VECG[PEG8]K-NH2 / II: {CH2CO}-FLPY[3Pal]WPTYSE[3Pal]VECG[PEG8]; amide I:18-II:C (inferred); thioether I:N-I:15, II:N-II:15 (inferred)) | A (The peptide with 50% or more activity when 1 nM of the peptide was added was evaluated as A) | 86% | A (The peptide with 50% or more activity when 1 nM of the peptide was added was evaluated as A) | – | – | –
B1 | – | – | – | < 1e-05 s⁻¹ | 0.421 nM | 102%
B2 | – | – | – | < 1e-05 s⁻¹ | 0.358 nM | 93%
